# Assay results taken from patent US20130224234A1, “TTLL4 PEPTIDES AND VACCINES CONTAINING THE SAME” (Onco Therapy Science, Inc., priority 2010, published 2013).
# “Also recorded” adds a separate entry of the source.
# Legend:
# [1] = test system: peptide-pulsed TISI cells; test: IFN-gamma ELISA assay of CTL clones (HLA-A*2402); assay type: cell-based, human; conditions: CTL clones by limiting dilution, target cells pulsed with peptide vs control
# Method: The dilutions were made to have 0.3, 1, and 3 CTLs/well in 96 round-bottomed micro titer plate (Nalge Nunc International). CTLs were cultured with 1×10^4 cells/well of 2 kinds of human B-lymphoblastoid cell lines, 30 ng/ml of anti-CD3 antibody, and 125 U/ml of IL-2 in a total of […] of AIM-V Medium containing 5% AS. 50 micro-l/well of IL-2 were added to the medium 10 days later so to reach a final concentration of 125 U/ml IL-2. CTL activity was tested on the 14th day, and CTL clones were expanded using the same method as described above (Uchida N et al., Clin Cancer Res 2004, 10(24): 8577-86; Suda T et al., Cancer Sci 2006, 97(5): 411-9; Watanabe T et al., Cancer Sci 2005, 96(8): 498-506).
# (§1) Specifically, peptide-pulsed TISI (1×10^4/well) was prepared as stimulator cells. Cultured cells in 48 wells were used as responder cells. IFN-gamma ELISPOT assay and IFN-gamma ELISA assay were performed under manufacture procedure.
# (§2) CTL activity of these CTL lines was determined by IFN-gamma ELISA assay (FIG. 2a-f). […] Furthermore, the CTL clones were established by limiting dilution from the CTL lines as described in “Materials and Methods”, and IFN-gamma production from the CTL clones against target cells pulsed peptide was determined by IFN-gamma ELISA assay. […] (FIG. 3a-d).
# [2] = test system: peptide-pulsed TISI cells; test: In vitro CTL induction, IFN-gamma ELISPOT assay (HLA-A*2402); assay type: cell-based, human; conditions: CTLs induced with peptide from HLA-A*2402 positive donor, peptide-pulsed TISI vs control
# Excerpt: Monocyte-derived dendritic cells (DCs) were used as antigen-presenting cells to induce cytotoxic T lymphocyte (CTL) responses against peptides presented on human leukocyte antigen (HLA). DCs were generated in vitro as described elsewhere (Nakahara S et al., Cancer Res 2003, 63(14): 4112-8). Specifically, peripheral blood mononuclear cells isolated from a normal volunteer (HLA-A*2402 positive) by Ficoll-Plaque (Pharmacia) solution were separated by adherence to a plastic tissue culture dish (Becton Dickinson) so as to enrich them as the monocyte fraction. The monocyte-enriched population was cultured in the presence of 1000 U/ml of granulocyte-macrophage colony-stimulating factor (R&D System) and 1000 U/ml of interleukin (IL)-4 (R&D System) in AIM-V Medium (Invitrogen) containing 2% heat-inactivated autologous serum (AS). After 7 days of culture, the cytokine-induced DCs were pulsed with 20 micro-g/ml of each of the synthesized peptides in the presence of 3 micro-g/ml of beta 2-microglobulin for 3 hr at 37 degrees C. in AIM-V Medium. The generated cells appeared to express DC-associated molecules, such as CD80, CD83, CD86 and HLA class II, on their cell surfaces (data not shown). These peptide-pulsed DCs were then inactivated by X-irradiation (20 Gy) and mixing at a 1:20 ratio with autologous CD8+ T cells, obtained by positive selection with CD8 Positive Isolation Kit (Dynal). These cultures were set up in 48-well plates (Corning); each well contained 1.5×10^4 peptide-pulsed DCs, 3×10^5 CD8+ T cells and 10 ng/ml of IL-7 (R&D System) in 0.5 ml of AIM-V/2% AS medium. Three days later, these cultures were supplemented with IL-2 (CHIRON) to a final concentration of 20 IU/ml. On day 7 and 14, the T cells were further stimulated with the autologous peptide-pulsed DCs. The DCs were prepared each time by the same way described above. CTL was tested against peptide-pulsed TISI cells after the 3rd round of peptide stimulation on day 21 (Tanaka H et al., Br J Cancer 2001, 84(1): 94-9; Umano Y et al., Br J Cancer 2001, 84(8): 1052-7; Uchida N et al., Clin Cancer Res 2004, 10(24): 8577-86; Suda T et al., Cancer Sci 2006, 97(5): 411-9; Watanabe T et al., Cancer Sci 2005, 96(8): 498-506).
# as §1
# CTLs for those peptides derived from TTLL4 were generated according to the protocols as described in “Materials and Methods”.
# [3] = test system: peptide-pulsed TISI cells; test: IFN-gamma ELISA assay of CTL lines (HLA-A*2402); assay type: cell-based, human; conditions: CTL lines stimulated with peptide, target cells pulsed with peptide vs without peptide pulse
# Method: CTLs were expanded in culture using the method similar to the one described by Riddell et al. (Walter E A et al., N Engl J Med 1995 333(16): 1038-44; Riddell S R et al., Nat Med 1996, 2(2): 216-23). A total of 5×10^4 CTLs were suspended in 25 ml of AIM-V/5% AS medium with 2 kinds of human B-lymphoblastoid cell lines, inactivated by Mitomycin C, in the presence of 40 ng/ml of anti-CD3 monoclonal antibody (Pharmingen). One day after initiating the cultures, 120 IU/ml of IL-2 were added to the cultures. The cultures were fed with fresh AIM-V/5% AS medium containing 30 IU/ml of IL-2 on days 5, 8 and 11 (Tanaka H et al., Br J Cancer 2001, 84(1): 94-9; Umano Y et al., Br J Cancer 2001, 84(8): 1052-7; Uchida N et al., Clin Cancer Res 2004, 10(24): 8577-86; Suda T et al., Cancer Sci 2006, 97(5): 411-9; Watanabe T et al., Cancer Sci 2005, 96(8): 498-506).
# as §1, §2
# [4] = test system: COS7 cells transfected with TTLL4 and HLA-A*2402; test: Specific CTL activity against target cells expressing TTLL4 and HLA-A*2402; assay type: cell-based, African green monkey; conditions: for Specific CTL activity against COS7 cells transfected with both TTLL4 and HLA-A*2402: CTL line (9-103) or CTL clones (10-103, 10-773) established with peptide; for Specific CTL activity against control COS7 cells expressing either HLA-A*2402 or TTLL4: controls: COS7 transfected with only full length TTLL4 or only HLA-A*2402
# Excerpt: The cDNA encoding an open reading frame of target genes or HLA-A*2402 was amplified by PCR. The PCR-amplified product was cloned into a vector. The plasmids were transfected into COS7, which is the target genes and HLA-A*2402-null cell line, using lipofectamine 2000 (Invitrogen) according to the manufacturer's recommended procedures. After 2 days from transfection, the transfected cells were harvested with versene (Invitrogen) and used as the target cells (5×10^4 cells/well) for CTL activity assay.
# The established CTL lines and clones raised against each peptide were examined for the ability to recognize target cells that express TTLL4 and HLA-A*2402 molecule. […] COS7 cells transfected with either full length of TTLL4 or HLA-A*2402 were prepared as the controls.
sequence,measurement,setting,value
AYFFCPSTL [SEQ ID NO: 6],IFN-gamma production of CTL clones (ELISA),[1]; listed as TTLL4-A24-9-79,Potent IFN-gamma productions
same,"Peptide specific CTL activity (IFN-gamma production, ELISPOT)",[2]; listed as TTLL4-A24-9-79,potent IFN-gamma production; also recorded: significant and specific CTL activity
same,IFN-gamma production of CTL lines (ELISA),[3],potent IFN-gamma production
CYLHSLPDLF [SEQ ID NO: 20],IFN-gamma production of CTL clones (ELISA),[1]; listed as TTLL4-A24-10-103,Potent IFN-gamma productions
same,"Peptide specific CTL activity (IFN-gamma production, ELISPOT)",[2]; listed as TTLL4-A24-10-103,potent IFN-gamma production; also recorded: significant and specific CTL activity
same,Specific CTL activity against COS7 cells transfected with both TTLL4 and HLA-A*2402,[4]; listed as TTLL4-A24-10-103,specific CTL activity; also recorded: potent CTL activity
same,Specific CTL activity against control COS7 cells expressing either HLA-A*2402 or TTLL4,[4],no significant specific CTL activity was detected
same,IFN-gamma production of CTL lines (ELISA),[3],potent IFN-gamma production
RYLHKPYLI [SEQ ID NO: 1],IFN-gamma production of CTL clones (ELISA),[1]; listed as TTLL4-A24-9-750,Potent IFN-gamma productions
same,"Peptide specific CTL activity (IFN-gamma production, ELISPOT)",[2]; listed as TTLL4-A24-9-750,potent IFN-gamma production; also recorded: significant and specific CTL activity
same,IFN-gamma production of CTL lines (ELISA),[3],potent IFN-gamma production
SYDPLRIYLF [SEQ ID NO: 21],IFN-gamma production of CTL clones (ELISA),[1]; listed as TTLL4-A24-10-773,Potent IFN-gamma productions
same,"Peptide specific CTL activity (IFN-gamma production, ELISPOT)",[2]; listed as TTLL4-A24-10-773,potent IFN-gamma production; also recorded: significant and specific CTL activity
same,Specific CTL activity against COS7 cells transfected with both TTLL4 and HLA-A*2402,[4]; listed as TTLL4-A24-10-773,specific CTL activity; also recorded: potent CTL activity
same,Specific CTL activity against control COS7 cells expressing either HLA-A*2402 or TTLL4,[4],no significant specific CTL activity was detected
same,IFN-gamma production of CTL lines (ELISA),[3],potent IFN-gamma production
